Assay [1] relates to BT474 and HN5 tumor cell lines. Put plainly: Methylene blue growth inhibition assay (cellular Method A). In kind it is cell-based, Human. The settings on record: Homo sapiens, BT-474, 72 h, 3 days, read-out: Activity (Method): growth inhibition IC50 class. Here is the method: Human breast (BT474) and head and neck (HN5) were cultured in low glucose DMEM (Life Technologies 12320-032) containing 10% fetal bovine serum (FBS). Human colon tumor cells (Colo205) were cultured in DMEM (Invitrogen, 10564) containing 10% FBS. The SV40 transformed human mammary epithelial cell line HB4a was transfected with either human H-ras cDNA (HB4a r4.2) or the human c-ErbB2 cDNA (HB4a c5.2). The HB4a clones were cultured in RPMI containing 10% FBS, insulin (5 g/mL), hydrocortisone (5 g/mL), supplemented with the selection agent hygromycin B (50 g/mL). All lines were grown in a humidified incubator at 37° C. in 95% air, 5% CO2. Cells were harvested using trypsin/EDTA, counted using a haemocytometer, and plated in 100 microliters of the appropriate media, at the following densities, in a 96-well tissue culture plate (Falcon 3075): BT474 10,000 cells/well, HN5 3,000 cells/well. The next day, compounds were diluted in DMEM containing […] gentamicin, at twice the final required concentration, from 10 mM stock solutions in DMSO. 100 microliters/well of these dilutions were added to the 100 microliters of media currently on the cell plates. Medium containing 0.6% DMSO was added to control wells. Compounds diluted in DMEM were added to all cell lines. The final concentration of DMSO in all wells was 0.3%. Cells were returned to the incubator (37° C., 10% CO2) for 3 days. Medium was then removed by aspiration. Cell biomass was estimated by staining cells with 90 microliters per well methylene blue (Sigma M9140, 0.5% in 1:1 ethanol:water), and incubation at rt for at least 30 minutes. Stain was removed, and the plates rinsed by immersion in deionized water and air-dried. To release stain from the cells 100 microliters of solubilization solution was added (1% N-lauroyl sarcosine, Sodium salt, Sigma L5125, in PBS), and plates were shaken gently for about 30 minutes. Optical density at 620 nm was measured on a microplate reader. Percent inhibition of cell growth was calculated relative to vehicle treated control wells. Concentration of compound that inhibits 50% of control cell growth (IC50) was interpolated using nonlinear regression (Levenberg-Marquardt) and the equation, y=Vmax*(1−(x/(K+x)))+Y2, where “K” was equal to the IC50. Method B: Celltiter Glo® Growth Inhibition Assays

The next assay has as its target T1, ErbB2 or EGFR.
T1 construct: enzymes purified from a baculovirus expression system; Reagent production was conducted essentially as described in Brignola, P. S., et al, (2002) J. Biol. Chem. 277(2): 1576-1585
Put plainly: ErbB family substrate phosphorylation enzyme assay (HTRF), Method A or Method B. In kind it is biochemical. Here is the method:
Compounds of the present invention were tested for EGFR, ErbB-2, and ErbB-4 protein tyrosine kinase inhibitory activity in substrate phosphorylation assays using enzymes purified from a baculovirus expression system. Reagent production was conducted essentially as described in Brignola, P. S., et al, (2002) J. Biol. Chem. 277(2): 1576-1585.
The method measures the ability of the isolated enzyme to catalyse the transfer of the gamma-phosphate from ATP onto the tyrosine residue of a biotinylated synthetic peptide referenced “Peptide C” in Brignola, P. S., et al, (2002) J. Biol. Chem. 277(2):1576-1585. The extent of tyrosine phosphorylation was measured using an anti-phosphotyrosine antibody, and quantified by homogenous time-resolved fluorescence (HTRF).
Reactions were performed in black 384-well polystyrene flat-bottom plates in a final volume of 20 ul. Assays were performed by adding 10 μl of each of the following solutions, substrate Mix and enzyme mix: The Substrate mix contained 100 mM 3-[N-morpholino]propanesulfonic acid (MOPS) (pH 7.5), 2 mM MnCl2, 20 μM ATP, 0.01% Tween-20, 0.1 mg/mL (BSA), 0.8 uM peptide substrate, and 1 mM dithiothreitol. The enzyme mix contained 100 mM MOPS (pH7.5); 0.01% Tween-20; 0.1 mg/mL BSA, and either 0.8 nM EGFR, 10 nM ErbB2, or 1 nM ErbB4
During the course of these studies, two separate methods have been used to measure the potency of compounds. In Method A, the substrate mix was added to the compound plates first, then the reaction was started by adding the enzyme mix. In Method B, the enzyme mix was added to the compound plates and the plates were incubated at 20° C. for 1 hour. The reactions were then started by adding the substrate mix.
After initiating the reaction with either method describe above, the reactions were allowed to proceed for 90 minutes at 20° C. The reactions were then terminated by the addition of 20 μl 100 mM EDTA to each well. 40 μl/well of HTRF detection mix were added to the assay plates. The final concentrations of the detection reagents were: 100 mM HEPES (pH7.5), 0.1 mg/mL BSA, 15 nM streptavidin-labeled allophycocyanin (PerkinElmer), and 1 nM europium-labeled anti-phosphotyrosine antibody (PerkinElmer). Assay plates were left unsealed and were counted in a Wallac Multilabel Counter 1420 (PerkinElmer).
Compounds under analysis were dissolved in Me2SO to 1.0 mM and serially diluted 1 to 3 with Me2SO through twelve dilutions. 1 μl of each concentration was transferred to the corresponding well of an assay plate. This creates a final compound concentration range from 0.00027 to 47.6 μM.
The data for dose responses were plotted as % Inhibition calculated with the data reduction formula 100*(1−(U1−C2)/(C1−C2)) versus concentration of compound where U is the unknown value, C1 is the average control value obtained for 4.76% DMSO, and C2 is the average control value obtained for 0.035 M EDTA. Data were fitted with a curve described by: y=((Vmax*x)/(K+x))+Y^2 where Vmax is the upper asymptote, Y2 is the Y intercept, and K is the IC50. The results for each compound were recorded as pIC50s, calculated as follows: pIC50=−Log 10(K)

[2] abbreviates: Method A: substrate mix added first, reaction started with enzyme mix.
Setting [3] is: Method B: enzyme mix pre-incubated with compound 1 hour at 20° C., started with substrate mix.

Where only a bound is given, the exact number is not on record here.

With `O=C(Nc1cccc(-c2nn3ccccc3c2-c2ccnc(Nc3cccc(C(F)(F)F)c3)n2)c1)c1c(F)cccc1F` [Example 33, 2,6-Difluoro-N-{3-[3-(2-{[3-(trifluoromethyl)phenyl]-amino}-4-pyrimidinyl)pyrazolo[1,5-a]pyridin-2-yl]phenyl}benzamide], the concentration for half-maximal inhibition (IC50) in assay [1] was in the range of 100 to 1000 nM. At ErbB2 or EGFR (setting [2]), the “Activity (Method): pIC50 class against ErbB2 or EGFR” value (“Activity (Method): pIC50 class” below) is listed as “+++ (A) (at least one pIC50 measurement of greater than 7 against either ErbB2 or EGFR)”.

Take `Nc1cccc(C(=O)Nc2cccc(-c3nn4ccccc4c3-c3ccnc(Nc4ccccc4)n3)c2)c1` [Example 143, 3-Amino-N-(3-{3-[2-(phenylamino)-4-pyrimidinyl]pyrazolo[1,5-a]pyridin-2-yl}phenyl)benzamide]: the IC50 in assay [1] was in the range of 100 to 1000 nM. The “Activity (Method): pIC50 class” value on ErbB2 or EGFR (setting [2]) is “+++ (A) (at least one pIC50 measurement of greater than 7 against either ErbB2 or EGFR)”.

In the case of `NS(=O)(=O)c1ccc(Nc2nccc(-c3c(-c4cccc(NC(=O)c5c(F)cccc5F)c4)nn4ccccc34)n2)cc1` [Example 32, N-{3-[3-(2-{[4-(aminosulfonyl)phenyl]amino}-4-pyrimidinyl)pyrazolo[1,5-a]pyridin-2-yl]phenyl}-2,6-difluorobenzamide], the IC50 in assay [1] was below 100 nM. Moreover, the “Activity (Method): pIC50 class” value on ErbB2 or EGFR (setting [3]) was “+++ (B) (at least one pIC50 measurement of greater than 7 against either ErbB2 or EGFR)”.

Take `O=C(Nc1cccc(-c2nn3ccccc3c2-c2ccnc(Nc3cccc(F)c3)n2)c1)c1sccc1Br` [Example 80, 3-Bromo-N-[3-(3-{2-[(3-fluorophenyl)amino]-4-pyrimidinyl}pyrazolo[1,5-a]pyridin-2-yl)phenyl]-2-thiophenecarboxamide]: in assay [1], the IC50 was in the range of 100 to 1000 nM. The “Activity (Method): pIC50 class” value at ErbB2 or EGFR (setting [3]) is on record as “++ (B) (at least one pIC50 measurement greater than 6 against either ErbB2 or EGFR but no measurement greater than pIC50 of 7)”.

Take `Cc1cc(C(=O)Nc2cccc(-c3nn4ccccc4c3-c3ccnc(Nc4cccc(F)c4)n3)c2)n(C)n1` [Example 23, N-[3-(3-{2-[(3-Fluorophenyl)amino]-4-pyrimidinyl}pyrazolo[1,5-a]pyridin-2-yl)phenyl]-1,3-dimethyl-1H-pyrazole-5-carboxamide]: in assay [1], the IC50 is above 1000 nM. Further, the “Activity (Method): pIC50 class” value on ErbB2 or EGFR (setting [3]) was “++ (B) (at least one pIC50 measurement greater than 6 against either ErbB2 or EGFR but no measurement greater than pIC50 of 7)”.

As to `O=C(Nc1cccc(-c2nn3c(C(F)(F)F)cccc3c2-c2ccnc(Nc3ccccc3)n2)c1)c1c(F)cccc1F` [Example 152, N-[3-(3-{2-[Phenylamino]-4-pyrimidinyl}-7-trifluoropyrazolo[1,5-b]pyridin-2-yl)phenyl]-2,6-difluorobenzamide], the IC50 in assay [1] was in the range of 100 to 1000 nM. The “Activity (Method): pIC50 class” value on ErbB2 or EGFR (setting [3]) is “++ (B) (at least one pIC50 measurement greater than 6 against either ErbB2 or EGFR but no measurement greater than pIC50 of 7)”.

Take `COc1cccc2c(-c3ccnc(Nc4cccc(C(F)(F)F)c4)n3)c(-c3cccc(NC(=O)c4c(F)cccc4F)c3)nn12` [Example 158, 2,6-Difluoro-N-{3-[7-methoxy-3-(2-{[3-(trifluoro-methyl)phenyl]amino}pyrimidin-4-yl)pyrazolo[1,5-a]pyridin-2-yl]phenyl}benzamide]: the IC50 in assay [1] was in the range of 100 to 1000 nM. Moreover, the “Activity (Method): pIC50 class” value at ErbB2 or EGFR (setting [2]) is reported as “++ (A) (at least one pIC50 measurement greater than 6 against either ErbB2 or EGFR but no measurement greater than pIC50 of 7)”.

As to `O=C(Nc1cccc(-c2nn3ccccc3c2-c2ccnc(Nc3ccc(C(=O)N4CCOCC4)cc3)n2)c1)c1c(F)cccc1F` [Example 100, 2,6-Difluoro-N-{3-[3-(2-{[4-(4-morpholinylcarbonyl)-phenyl]amino}-4-pyrimidinyl)pyrazolo[1,5-a]pyridin-2-yl]phenyl}benzamide], the IC50 in assay [1] is below 100 nM. Besides, the “Activity (Method): pIC50 class” value on ErbB2 or EGFR (setting [2]) is given as “+++ (A) (at least one pIC50 measurement of greater than 7 against either ErbB2 or EGFR)”.

The values above are taken from patent US7812022B2 (GlaxoSmithKline LLC, priority 2004, dated 2010).
